Read-outs that look alike come from different tables or passages of the source.
Target: T1, human M2 receptor (Homo sapiens, UniProt P08172)
T1 sequence (P08172 1-466): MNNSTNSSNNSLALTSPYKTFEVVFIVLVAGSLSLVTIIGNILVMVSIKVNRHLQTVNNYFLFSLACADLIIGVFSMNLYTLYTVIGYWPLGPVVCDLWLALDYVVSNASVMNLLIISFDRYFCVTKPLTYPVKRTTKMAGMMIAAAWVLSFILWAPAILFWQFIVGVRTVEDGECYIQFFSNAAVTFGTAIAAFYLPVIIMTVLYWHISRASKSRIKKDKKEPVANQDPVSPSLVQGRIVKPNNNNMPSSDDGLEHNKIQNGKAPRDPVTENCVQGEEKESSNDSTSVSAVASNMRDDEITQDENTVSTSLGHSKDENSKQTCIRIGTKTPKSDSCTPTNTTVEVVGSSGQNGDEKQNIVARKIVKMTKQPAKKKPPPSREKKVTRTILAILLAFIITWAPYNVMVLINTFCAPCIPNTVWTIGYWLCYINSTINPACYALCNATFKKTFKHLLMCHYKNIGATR
Conditions: for Efficiency: boosting of the acetylcholine effect at EC20 acetylcholine concentration

[1] = Receptor activity EC50, M2-GIRK1/4 activation test, acetylcholine at EC20, allosteric potency, in some cases mean values from two or more determinations
[2] = Receptor activity EC50, allosteric potency at EC20 acetylcholine, M2-GIRK1/4 reporter cells, in some cases mean of two or more determinations
[3] = read-out: Efficiency, boosting of the acetylcholine effect at EC20 acetylcholine concentration, M2-GIRK1/4 reporter cells

EC50 [1] | EC50 [2] | Emax [3] | SMILES | further results
74 nM |  |  | O=C(NC(c1ccccc1Cl)C(F)(F)F)c1cn(-c2ccc(F)cc2F)c2nc(N3CC[C@H](O)C3=O)ccc2c1=O (stereo partly drawn) [Example 298, N-[1-(2-Chlorophenyl)-2,2,2-trifluoroethyl]-1-(2,4-difluorophenyl)-7-[(3S)-3-hydroxy-2-oxopyrrolidin-1-yl]-4-oxo-1,4-dihydro-1,8-naphthyridine-3-carboxamide] | 
 | 3850 nM | 100% | O=C(N[C@@H](C1CC1)C(F)(F)F)c1cn(-c2c(F)cc(F)cc2F)c2nc(N3C[C@@H](C(=O)O)OC3=O)ccc2c1=O [Example 667, (5S)-3-[6-{[(1S)-1-Cyclopropyl-2,2,2-trifluoroethyl]carbamoyl}-5-oxo-8-(2,4,6-trifluorophenyl)-5,8-dihydro-1,8-naphthyridin-2-yl]-2-oxo-1,3-oxazolidine-5-carboxylic acid] | 
 | 16 nM | 97.5% | CC1CC(=O)N(c2ccc3c(=O)c(C(=O)NC(C4CC4)C(F)(F)F)cn(-c4c(F)cc(F)cc4F)c3n2)C1 (stereo in doubt) [Example 420, N-[(1R)-1-cyclopropyl-2,2,2-trifluoroethyl]-7-[4-methyl-2-oxopyrrolidin-1-yl]-4-oxo-1-(2,4,6-trifluorophenyl)-1,4-dihydro-1,8-naphthyridine-3-carboxamide] | 
64 nM |  |  | NC(=O)N1CCN(c2ccc3c(=O)c(C(=O)NC45CC6CC(CC(C6)C4)C5)cn(-c4ccc(F)cc4F)c3n2)CC1 [Example 12, 7-(4-Carbamoylpiperazin-1-yl)-1-(2,4-difluorophenyl)-4-oxo-N-(tricyclo[3.3.1.1^3,7]dec-1-yl)-1,4-dihydro-1,8-naphthyridine-3-carboxamide] | 
45 nM |  |  | O=C(NC12CC3CC(CC(C3)C1)C2)c1cn(-c2ccc(F)cc2F)c2nc(N3CCSC3)ccc2c1=O [Example 129, 1-(2,4-Difluorophenyl)-4-oxo-7-(1,3-thiazolidin-3-yl)-N-(tricyclo[3.3.1.1^3,7]dec-1-yl)-1,4-dihydro-1,8-naphthyridine-3-carboxamide] | 
 | 24 nM | 100% | O=C(NC(c1ccccc1Cl)C(F)(F)F)c1cn(-c2c(F)cc(F)cc2F)c2nc(N3C[C@@H](O)CC3=O)ccc2c1=O (single isomer, unassigned) [Example 533] | 
 | 97 nM | 98% | CC1(NC(=O)c2cn(-c3c(F)cc(F)cc3F)c3nc(N4C[C@@H](O)[C@H](O)C4)ccc3c2=O)CC(F)(F)C1 [Example 655, N-(3,3-Difluoro-1-methylcyclobutyl)-7-[(3R,4R)-3,4-dihydroxypyrrolidin-1-yl]-4-oxo-1-(2,4,6-trifluorophenyl)-1,4-dihydro-1,8-naphthyridine-3-carboxamide] | 
 | 14 nM |  | O=C(NC(CC(F)(F)F)C(F)(F)F)c1cn(-c2c(F)cc(F)cc2F)c2nc(N3CCNC3=O)ccc2c1=O (racemic) [Example 587, N-[1,1,1,4,4,4-Hexafluorobutan-2-yl]-4-oxo-7-(2-oxoimidazolidin-1-yl)-1-(2,4,6-trifluorophenyl)-1,4-dihydro-1,8-naphthyridine-3-carboxamide] | Efficiency (M2-GIRK1/4 reporter cells): 93.5%
 |  |  | O=C(NC(c1ccccc1Cl)C(F)(F)F)c1cn(-c2c(F)cc(F)cc2F)c2nc(N3CCNC3=O)ccc2c1=O (racemic) [Example 565, N-[1-(2-Chlorophenyl)-2,2,2-trifluoroethyl]-4-oxo-7-(2-oxoimidazolidin-1-yl)-1-(2,4,6-trifluorophenyl)-1,4-dihydro-1,8-naphthyridine-3-carboxamide] | Efficiency (M2-GIRK1/4 reporter cells): 99.5%
 | 25 nM | 93.5% | O=C(N[C@@H](C1CC1)C(F)(F)F)c1cn(-c2c(F)cc(F)cc2F)c2nc(N3CCCNC3=O)ccc2c1=O [Example 604, N-[(1S)-1-Cyclopropyl-2,2,2-trifluoroethyl]-4-oxo-7-(2-oxotetrahydropyrimidin-1(2H)-yl)-1-(2,4,6-trifluorophenyl)-1,4-dihydro-1,8-naphthyridine-3-carboxamide] | 
 | 32 nM | 90% | O=C(NC12CC(F)(C1)C2)c1cn(-c2c(F)cc(F)cc2Cl)c2nc(N3C[C@@H](O)CC3=O)ccc2c1=O [Example 397, 1-(2-Chloro-4,6-difluorophenyl)-N-(3-fluorobicyclo[1.1.1]pent-1-yl)-7-[(4S)-4-hydroxy-2-oxopyrrolidin-1-yl]-4-oxo-1,4-dihydro-1,8-naphthyridine-3-carboxamide] | 
17 nM |  |  | O=C(N[C@@H](C1CC1)C(F)(F)F)c1cn(-c2c(F)cccc2Cl)c2nc(N3C[C@@H](O)CC3=O)ccc2c1=O [Example 352, 1-(2-Chloro-6-fluorophenyl)-N-[(1S)-1-cyclopropyl-2,2,2-trifluoroethyl]-7-[(4S)-4-hydroxy-2-oxopyrrolidin-1-yl]-4-oxo-1,4-dihydro-1,8-naphthyridine-3-carboxamide] | 
91 nM |  |  | O=C(NC12CC(F)(C1)C2)c1cn(-c2c(F)cc(F)cc2F)c2nc(N3C[C@@H](O)[C@H](O)C3)ccc2c1=O [Example 368, 7-[(3R,4R)-3,4-Dihydroxypyrrolidin-1-yl]-N-(3-fluorobicyclo[1.1.1]pent-1-yl)-4-oxo-1-(2,4,6-trifluorophenyl)-1,4-dihydro-1,8-naphthyridine-3-carboxamide] | 
7 nM |  |  | CC(C)(CC(F)(F)F)NC(=O)c1cn(-c2c(F)cc(F)cc2Cl)c2nc(N3CCNC3=O)ccc2c1=O [Example 394, 1-(2-Chloro-4,6-difluorophenyl)-4-oxo-7-(2-oxoimidazolidin-1-yl)-N-(4,4,4-trifluoro-2-methylbutan-2-yl)-1,4-dihydro-1,8-naphthyridine-3-carboxamide] | 
94 nM |  |  | CCC(NC(=O)c1cn(-c2ccc(F)cc2F)c2nc(NCC(F)F)ccc2c1=O)C(F)(F)F (racemic) [Example 122, rac-7-[(2,2-Difluoroethyl)amino]-1-(2,4-difluorophenyl)-4-oxo-N-[1,1,1-trifluorobutan-2-yl]-1,4-dihydro-1,8-naphthyridine-3-carboxamide] | 
 | 84 nM | 100% | O=C(N[C@H](C(F)F)C1CC1)c1cn(-c2c(F)cc(F)cc2F)c2nc(N3C[C@@H](O)CC3=O)ccc2c1=O [Example 435, N-[(1 S)-1-Cyclopropyl-2,2-difluoroethyl]-7-[(4S)-4-hydroxy-2-oxopyrrolidin-1-yl]-4-oxo-1-(2,4,6-trifluorophenyl)-1,4-dihydro-1,8-naphthyridine-3-carboxamide] | 
 | 10 nM | 100% | CC(C)(NC(=O)c1cn(-c2c(F)cc(F)cc2F)c2nc(N3C[C@@H](O)CC3=O)ccc2c1=O)C1CC1 [Example 481, N-(2-Cyclopropylpropan-2-yl)-7-[(4S)-4-hydroxy-2-oxopyrrolidin-1-yl]-4-oxo-1-(2,4,6-trifluorophenyl)-1,4-dihydro-1,8-naphthyridine-3-carboxamide] | 
 | 73 nM | 92% | CC[C@@H](NC(=O)c1cn(-c2c(Cl)cc(F)cc2Cl)c2nc(N3C[C@@H](O)[C@H](O)C3)ccc2c1=O)C(F)(F)F [Example 643, 1-(2,6-Dichloro-4-fluorophenyl)-7-[(3R,4R)-3,4-dihydroxypyrrolidin-1-yl]-4-oxo-N-[(2R)-1,1,1-trifluorobutan-2-yl]-1,4-dihydro-1,8-naphthyridine-3-carboxamide] | 
14 nM |  |  | C[C@H](NC(=O)c1cn(-c2c(F)cc(F)cc2F)c2nc(N3CC4CC4(O)C3)ccc2c1=O)C(F)(F)F (single isomer, unassigned) [Example 318] | 
 | 10 nM | 100% | CCC(NC(=O)c1cn(-c2ccc(F)cc2F)c2nc(N3C[C@@H](O)CC3=O)ccc2c1=O)C(F)(F)C(F)(F)F (mixture of isomers) [Example 556, 1-(2,4-Difluorophenyl)-7-[(4S)-4-hydroxy-2-oxopyrrolidin-1-yl]-4-oxo-N-[1,1,1,2,2-pentafluoropentan-3-yl]-1,4-dihydro-1,8-naphthyridine-3-carboxamide] | 
16 nM |  |  | CC(C)C[C@H](NC(=O)c1cn(-c2ccc(F)cc2F)c2nc(N(C)C)ccc2c1=O)C(F)(F)F [Example 137, 1-(2,4-Difluorophenyl)-7-(dimethylamino)-4-oxo-N-[(2S)-1,1,1-trifluoro-4-methylpentan-2-yl]-1,4-dihydro-1,8-naphthyridine-3-carboxamide] | 
144 nM |  |  | CC(C)CC(NC(=O)c1cn(-c2ccc(F)cc2F)c2nc(NCC(F)(F)F)ccc2c1=O)C(F)(F)F (racemic) [Example 95, rac-1-(2,4-Difluorophenyl)-4-oxo-7-[(2,2,2-trifluoroethyl)amino]-N-[1,1,1-trifluoro-4-methylpentan-2-yl]-1,4-dihydro-1,8-naphthyridine-3-carboxamide] | 

SMILES | EC50 [1] | EC50 [2] | Emax [3] | further results
CC[C@@H](NC(=O)c1cn(-c2c(Cl)cc(F)cc2Cl)c2nc(N3C[C@@H](O)CC3=O)ccc2c1=O)C(F)(F)F [Example 388, 1-(2,6-Dichloro-4-fluorophenyl)-7-[(4S)-4-hydroxy-2-oxopyrrolidin-1-yl]-4-oxo-N-[(2R)-1,1,1-trifluorobutan-2-yl]-1,4-dihydro-1,8-naphthyridine-3-carboxamide] | 52 nM |  |  | Emax (read-out: Efficiency): 89%
O=C(NC12CC3CC(CC(C3)C1)C2)c1cn(-c2ccc(F)cc2F)c2nc(N3CCC(O)CC3=O)ccc2c1=O (stereo not drawn) [Example 173] | 88 nM |  |  | 

Source: patent US20190367516A1 (Bayer Pharma Aktiengesellschaft, priority 2015, published 2019)
